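Each compound was tested at five concentrations against cells in 96-well plates for 48 hours. GI50 is the concentration that inhibits growth by half.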 Active and inactive are the calls of the source. Cut-off read from the data, not from the text of the source: active = GI50 up to about 1.1 µM and inactive = higher.
Columns and labels:
Assay in all cases: NCI anticancer screen, dose series, 48 h
CAKI-1 = tested on: CAKI-1
SNB-19 = tested on: SNB-19
SK-OV-3 = tested on: SK-OV-3
UACC-257 = tested on: UACC-257
NCI-H522 = tested on: NCI-H522
HL-60 = tested on: HL-60
HOP-92 = tested on: HOP-92
MDA-N = tested on: MDA-N
OVCAR-8 = tested on: OVCAR-8
SN12C = tested on: SN12C
786-0 = tested on: 786-0
HCT-116 = tested on: HCT-116
BT-549 = tested on: BT-549
LOX IMVI = tested on: LOX IMVI
SF-268 = tested on: SF-268
PC-3 = tested on: PC-3
SR = tested on: SR
CCRF-CEM = tested on: CCRF-CEM
K562 = tested on: K562

Measured: GI50

C=C1C(C(=O)OC)[C@H]1C(=O)OC (stereo partly drawn)
inactive: CAKI-1 > 100 µM | SNB-19 > 100 µM | SK-OV-3 > 100 µM | UACC-257 > 100 µM | NCI-H522 > 100 µM | HL-60 > 100 µM | HOP-92 > 100 µM | MDA-N > 100 µM | OVCAR-8 > 100 µM | SN12C > 100 µM | 786-0 > 100 µM | HCT-116 > 100 µM | BT-549 > 100 µM | LOX IMVI > 100 µM | SF-268 > 100 µM | PC-3 > 100 µM | SR > 100 µM

O=C1C(=CNc2ccc([N+](=O)[O-])cc2)C(=O)N(c2ccccc2)C(=O)N1c1ccccc1
inactive: CAKI-1 > 100 µM | SNB-19 > 100 µM | SK-OV-3 > 100 µM | UACC-257 > 100 µM | NCI-H522 > 100 µM | HOP-92 > 100 µM | MDA-N > 100 µM | OVCAR-8 > 100 µM | SN12C > 100 µM | 786-0 > 100 µM | HCT-116 > 100 µM | BT-549 > 100 µM | CCRF-CEM > 100 µM | LOX IMVI > 100 µM | SF-268 > 100 µM | PC-3 > 100 µM | K562 > 100 µM | SR > 100 µM

NC(=O)c1cc(-c2ccc(-n3ccnc3)cc2)nnc1O
inactive: CAKI-1 > 100 µM | SNB-19 > 100 µM | SK-OV-3 > 100 µM | UACC-257 > 100 µM | NCI-H522 > 100 µM | HL-60 > 100 µM | HOP-92 > 100 µM | MDA-N > 100 µM | OVCAR-8 > 100 µM | SN12C > 100 µM | 786-0 > 100 µM | HCT-116 > 100 µM | BT-549 > 100 µM | CCRF-CEM > 100 µM | SF-268 > 100 µM | PC-3 > 100 µM | SR > 100 µM

CC1=Nc2nc3ccccc3n2C(C)(C)C1
inactive: CAKI-1 > 100 µM | SNB-19 > 100 µM | SK-OV-3 > 100 µM | UACC-257 > 100 µM | NCI-H522 > 100 µM | HOP-92 > 100 µM | MDA-N > 100 µM | OVCAR-8 > 100 µM | 786-0 > 100 µM | HCT-116 > 100 µM | BT-549 > 100 µM | CCRF-CEM > 100 µM | LOX IMVI > 100 µM | SF-268 > 100 µM | PC-3 > 100 µM | K562 > 100 µM | SR > 100 µM

COc1cc2nc(-c3c(F)cccc3F)n(Cc3c(F)cccc3F)c2cc1Cc1c(F)cccc1F
inactive: CAKI-1 8.77 µM | SNB-19 > 100 µM | SK-OV-3 > 100 µM | NCI-H522 10 µM | HOP-92 2.79 µM | MDA-N > 100 µM | OVCAR-8 > 100 µM | SN12C > 69.8 µM | 786-0 > 100 µM | HCT-116 > 26.7 µM | BT-549 > 71.8 µM | CCRF-CEM > 100 µM | LOX IMVI > 100 µM | SF-268 > 72.1 µM | PC-3 > 100 µM | K562 > 28.6 µM | SR > 20.4 µM

O=C(C#Cc1cn(C2CC(O)C(CO)O2)c(=O)[nH]c1=O)c1ccccc1 (stereo not drawn)
inactive: CAKI-1 > 100 µM | SNB-19 > 100 µM | SK-OV-3 > 100 µM | UACC-257 55 µM | NCI-H522 5.6 µM | HOP-92 29.5 µM | MDA-N 60.3 µM | OVCAR-8 > 100 µM | SN12C 31.8 µM | 786-0 62.2 µM | HCT-116 42.5 µM | BT-549 37.2 µM | LOX IMVI 49.8 µM | SF-268 > 100 µM | PC-3 > 100 µM | SR 24.8 µM

C[C@H](CCC1=NCCN1)[C@H]1CC[C@H]2[C@@H]3CC[C@@H]4C[C@H](O)CC[C@]4(C)[C@H]3CC[C@]12C
inactive: CAKI-1 3.51 µM | SNB-19 13.9 µM | SK-OV-3 18.8 µM | UACC-257 2.55 µM | NCI-H522 5.41 µM | HOP-92 3.3 µM | MDA-N 10.1 µM | OVCAR-8 12 µM | SN12C 8.85 µM | 786-0 2.37 µM | HCT-116 4.72 µM | BT-549 14.4 µM | CCRF-CEM 4.08 µM | LOX IMVI 1.95 µM | SF-268 10.6 µM | PC-3 4.94 µM | K562 2.49 µM | SR 2.55 µM

CCOP(=O)(OCC)C1C(CO)OC(n2ccc(=O)[nH]c2=O)C1O (stereo not drawn)
inactive: CAKI-1 > 100 µM | SNB-19 > 100 µM | UACC-257 > 100 µM | NCI-H522 > 100 µM | HL-60 > 100 µM | HOP-92 > 100 µM | MDA-N > 100 µM | OVCAR-8 > 100 µM | SN12C > 100 µM | 786-0 > 100 µM | HCT-116 > 100 µM | BT-549 > 100 µM | CCRF-CEM > 10 µM | LOX IMVI > 100 µM | SF-268 > 100 µM | PC-3 > 100 µM | K562 > 100 µM | SR > 100 µM
